Results taken from ChEMBL document CHEMBL1122295, “Modified steroid hormones. 7. 4-Fluoro-17 beta-estradiol: carbon-13 nuclear magnetic resonance, crystal and molecular structure, and biological activity” (1983).
Several values for one entry are separate records, joined by “and”; a condition that tells them apart may be missing. Identical values can stand only once.

Key:
Type in all cases: functional
[1] = species: Rattus norvegicus; test: Effect on the average tumor mass was determined in DMBA treated rats on day 6 (5 rats with tumors out of 10 rats)
[2] = species: Rattus norvegicus; test: Effect on the average tumor number was determined in DMBA treated rats on day 150 (3 rats with tumors out of 10 rats)
[3] = species: Rattus norvegicus; test: Effect on the tumor incidence was determined in DMBA treated rats on day 8 (3 rats with tumors out of 10 rats)
[4] = species: Rattus norvegicus; test: Effect on the average tumor mass was determined in DMBA treated rats on day 150 (3 rats with tumors out of 10 rats)
[5] = species: Rattus norvegicus; test: Effect on the tumor incidence was determined in DMBA treated rats on day 1 (5 rats with tumors out of 10 rats)
[6] = species: Rattus norvegicus; test: Effect on the average tumor mass was determined in DMBA treated rats on day 1 (5 rats with tumors out of 10 rats)
[7] = species: Rattus norvegicus; test: Effect on the average tumor mass was determined in DMBA treated rats on day 30 (1 rats with tumors out of 10 rats)
[8] = species: Rattus norvegicus; test: Effect on the tumor incidence was determined in DMBA treated rats on day 150 (3 rats with tumors out of 10 rats)
[9] = species: Rattus norvegicus; test: Effect on the average tumor number was determined in DMBA treated rats on day 30 (1 rats with tumors out of 10 rats)
[10] = species: Rattus norvegicus; test: Effect on the tumor incidence was determined in DMBA treated rats on day 30 (1 rats with tumors out of 10 rats)
[11] = species: Rattus norvegicus; test: Effect on the average tumor number was determined in DMBA treated rats on day 1 (5 rats with tumors out of 10 rats)
[12] = species: Rattus norvegicus; test: Effect on the tumor incidence was determined in DMBA treated rats on day 6 (5 rats with tumors out of 10 rats)
[13] = species: Rattus norvegicus; test: Effect on the average tumor mass was determined in DMBA treated rats on day 8 (3 rats with tumors out of 10 rats)
[14] = species: Rattus norvegicus; test: Effect on the average tumor number was determined in DMBA treated rats on day 8 (3 rats with tumors out of 10 rats)
[15] = species: Rattus norvegicus; test: Effect on the average tumor number was determined in DMBA treated rats on day 6 (5 rats with tumors out of 10 rats)
[16] = species: Rattus norvegicus; test: Effect on the average tumor mass was determined in DMBA treated rats on day 8 (4 rats with tumors out of 10 rats)
[17] = species: Rattus norvegicus; test: Effect on the average tumor mass was determined in DMBA treated rats on day 150 (2 rats with tumors out of 10 rats)
[18] = species: Rattus norvegicus; test: Effect on the tumor incidence was determined in DMBA treated rats on day 150 (2 rats with tumors out of 10 rats)
[19] = species: Rattus norvegicus; test: Effect on the average tumor number was determined in DMBA treated rats on day 8 (4 rats with tumors out of 10 rats)
[20] = species: Rattus norvegicus; test: Effect on the average tumor mass was determined in DMBA treated rats on day 30 (3 rats with tumors out of 10 rats)
[21] = species: Rattus norvegicus; test: Effect on the average tumor number was determined in DMBA treated rats on day 30 (3 rats with tumors out of 10 rats)
[22] = species: Rattus norvegicus; test: Effect on the average tumor number was determined in DMBA treated rats on day 150 (2 rats with tumors out of 10 rats)
[23] = species: Rattus norvegicus; test: Effect on the tumor incidence was determined in DMBA treated rats on day 30 (3 rats with tumors out of 10 rats)
[24] = species: Rattus norvegicus; test: Effect on the tumor incidence was determined in DMBA treated rats on day 8 (4 rats with tumors out of 10 rats)
[25] = species: Rattus norvegicus; test: Effect on the average tumor number was determined in DMBA treated rats on day 30 (9 rats with tumors out of 10 rats)
[26] = species: Rattus norvegicus; test: Effect on the average tumor mass was determined in DMBA treated rats on day 150 (9 rats with tumors out of 10 rats)
[27] = species: Rattus norvegicus; test: Effect on the average tumor number was determined in DMBA treated rats on day 150 (9 rats with tumors out of 10 rats)
[28] = species: Rattus norvegicus; test: Effect on the average tumor mass was determined in DMBA treated rats on day 30 (9 rats with tumors out of 10 rats)
[29] = species: Rattus norvegicus; test: Effect on the tumor incidence was determined in DMBA treated rats on day 150 (9 rats with tumors out of 10 rats)
[30] = species: Rattus norvegicus; test: Effect on the tumor incidence was determined in DMBA treated rats on day 30 (9 rats with tumors out of 10 rats)
[31] = species: Rattus norvegicus; test: Effect on the average tumor number was determined in DMBA treated rats on day 30 (10 rats with tumors out of 10 rats)
[32] = species: Rattus norvegicus; test: Effect on the average tumor mass was determined in DMBA treated rats on day 6 (4 rats with tumors out of 10 rats)
[33] = species: Rattus norvegicus; test: Effect on the tumor incidence was determined in DMBA treated rats on day 6 (4 rats with tumors out of 10 rats)
[34] = species: Rattus norvegicus; test: Effect on the tumor incidence was determined in DMBA treated rats on day 150 (10 rats with tumors out of 10 rats)
[35] = species: Rattus norvegicus; test: Effect on the average tumor mass was determined in DMBA treated rats on day 150 (10 rats with tumors out of 10 rats)
[36] = species: Rattus norvegicus; test: Effect on the tumor incidence was determined in DMBA treated rats on day 30 (10 rats with tumors out of 10 rats)
[37] = species: Rattus norvegicus; test: Effect on the average tumor number was determined in DMBA treated rats on day 6 (4 rats with tumors out of 10 rats)
[38] = species: Rattus norvegicus; test: Effect on the average tumor mass was determined in DMBA treated rats on day 30 (10 rats with tumors out of 10 rats)
[39] = species: Rattus norvegicus; test: Effect on the average tumor number was determined in DMBA treated rats on day 150 (10 rats with tumors out of 10 rats)

Structure (SMILES)	Tumor mass [1]	Tumor number [2]	Total tumors [3]	Tumor mass [4] [g]	Total tumors [5]	Tumor mass [6]	Tumor mass [7] [g]	Total tumors [8]	Tumor number [9]	Total tumors [10]	Tumor number [11]	Total tumors [12]	Tumor mass [13] [g]	Tumor number [14]	Tumor number [15]	Tumor mass [16]	Tumor number [19]	Total tumors [24]	also measured
CC(C)[C@@H]1C(=O)N2CCC[C@H]2[C@]2(O)O[C@](NC(=O)[C@@H]3C=C4c5cccc6[nH]cc(c56)C[C@H]4N(C)C3)(C(C)C)C(=O)N12.C[C@]12CC[C@@H]3c4ccc(O)c(F)c4CC[C@H]3[C@@H]1CC[C@@H]2O.O=C(O)/C=C\C(=O)O	0.2 g	1	3	2.7	6	0.4 g	0.3	3	1	1	1.2	5	0.2	1	1	–	–	–	–
CC(=O)[C@H]1CC[C@H]2[C@@H]3CCC4=CC(=O)CC[C@]4(C)[C@H]3CC[C@]12C.CC(C)[C@@H]1C(=O)N2CCC[C@H]2[C@]2(O)O[C@](NC(=O)[C@@H]3C=C4c5cccc6[nH]cc(c56)C[C@H]4N(C)C3)(C(C)C)C(=O)N12.C[C@]12CC[C@@H]3c4ccc(O)c(F)c4CC[C@H]3[C@@H]1CC[C@@H]2O.O=C(O)/C=C\C(=O)O	0.8 g and 0.6 g	1	–	1.2	5 and 6	0.5 g and 0.4 g	0.5	3	1	1	1 and 1.2	7	–	–	1.4	0.5 g and 0.6 g	1.3 and 1.4	5 and 6	Tumor mass [17]: 5 g; Total tumors [18]: 5; Tumor mass [20]: 0.3 g; Tumor number [21]: 1; Tumor number [22]: 2.5; Total tumors [23]: 3
CC(C)[C@@H]1C(=O)N2CCC[C@H]2[C@]2(O)O[C@](NC(=O)[C@@H]3C=C4c5cccc6[nH]cc(c56)C[C@H]4N(C)C3)(C(C)C)C(=O)N12.O=C(O)/C=C\C(=O)O	0.4 g	–	–	–	8	0.8 g	–	–	–	–	1.6	6	–	–	1.2	0.4 g	1.3	5	Tumor number [25]: 1.3; Tumor mass [26]: 1.7 g; Tumor number [27]: 1.9; Tumor mass [28]: 0.4 g; Total tumors [29]: 16; Total tumors [30]: 12
CC(=O)[C@H]1CC[C@H]2[C@@H]3CCC4=CC(=O)CC[C@]4(C)[C@H]3CC[C@]12C.CC(C)[C@@H]1C(=O)N2CCC[C@H]2[C@]2(O)O[C@](NC(=O)[C@@H]3C=C4c5cccc6[nH]cc(c56)C[C@H]4N(C)C3)(C(C)C)C(=O)N12.O=C(O)/C=C\C(=O)O	–	–	4	–	6	0.4 g	–	–	–	–	1.2	–	0.9	1.3	–	–	–	–	Tumor number [31]: 1.5; Tumor mass [32]: 0.7 g; Total tumors [33]: 4; Total tumors [34]: 17; Tumor mass [35]: 4 g; Total tumors [36]: 15; Tumor number [37]: 1; Tumor mass [38]: 1.5 g; Tumor number [39]: 1.7
